Literature values in PMC7610473, “Axial functionalisation of photoactive diazido platinum(iv) anticancer complexes” (Inorganic chemistry frontiers, 2020).

Set-up: method as in PMID 9399704

## O=C(O)c1cc2ccc(O)cc2oc1=O [7-hydroxycoumarin-3 carboxylic acid]
  pK a: 1.98
